According to patent publication US5635516A, “(Thia) cycloalkyl[B]indole compounds as anti-inflammatory agents” (Adir et Compagnie, priority 1994, dated 1997):

Legend:
5-lipoxygenase = test: LTB4 production by rabbit granulocytes stimulated in vitro by A 23187 (enzyme immunoassay); format: cell-based; details: 10-^7 M
Description: (§1) The object of this study is to determine the effects of compounds of the invention on the lipoxygenase and cyclo-oxygenase activities of rabbit granulocytes stimulated in vitro by A 23187, by measuring the levels of PGE2 and LTB4 thus liberated by means of an enzyme immunoassay (EIA). The granulocytes are isolated from rabbit blood collected from the main artery of the ear according to the method described by Trush et al. (1978). They are suspended, at a density of 10^6 cells/cm^3, in a phosphate buffer (mM): NaCl: 137; KCl: 2.68; Na2 HPO4 : 8.1; KH2 PO4 : 1.47; CaCl2 : 0.9; MgCl2 : 0.5 The freshly obtained granulocytes are pre-incubated for a period of 15 minutes at 37° C. in the presence of the test products. The results are expressed as percentages of the positive control. The values are presented as the mean±s.e.m. of three measurements carried out on the same day, for the "screening" study, and of three measurements carried out on three different days for the IC50 study. The IC50 values and the Hill number values (Hn) are determined by modelling using the Hill equation.

cyclo-oxygenase = test: PGE2 production by rabbit granulocytes stimulated in vitro by A 23187 (enzyme immunoassay); format: cell-based; details: 10-^7 M
Description: as §1

[1] = system: phorbol 12-myristate-13-acetate induced ear swelling; test: Acute cutaneous inflammation in mice (phorbol 12-myristate-13-acetate test); format: in vivo; details: Mus musculus; topical on ears of mice 30 minutes before phorbol 12-myristate-13-acetate; swelling of the ear at 6 hours
Experimental: In the following test, the measurements were carried out on groups of five mice. The tests on the groups of control mice are carried out at the same time as those on the groups of mice which have received the test compounds.
5 μg of phorbol 12-myristate-13-acetate in 20 μl of an ethanol/water mixture (8:2) are applied to the front and rear surfaces of the right ears of the mice, 30 minutes after the application in a similar manner of the test compounds or of the vehicle (2×20 μl at 5-minute intervals in absolute alcohol). The swelling of the ear is measured 6 hours later with the aid of a Dyer micrometer. That measurement is used as the inflammation index.

Row | Structure (SMILES) | inhibition of the production of LTB4 (5-lipoxygenase) | effect on the production of PGE2 (cyclo-oxygenase) | IC50 [1]
1 | CCOC(=O)Cn1c2c(c3cc(OCc4ccc5ccccc5n4)ccc31)CCCCCC2 [Example 2] | completely | without reducing | 20 µM
2 | O=C(O)Cn1c2c(c3cc(OCc4ccc5ccccc5n4)ccc31)CCCCCC2 [Example 4, 2-{3-[(QUINOL-2-YL)METHYLOXY]-5,6,7,8,9,10,11-HEPTAHYDRO-CYCLOOCT[b]INDOLE}ACETIC ACID] |  |  | 15 µM
